{
  "source": "patent US20230364074A1",
  "about": "“Compounds and Compositions for Disrupting Programmed Ribosomal Frameshifting” (YALE UNIVERSITY, priority 2020, published 2023)",
  "test_system": "SARS-CoV-2 FSE mutants",
  "format": "cell-based",
  "data": [
    {"smiles": "CCNCC1CCN(c2c(F)cc3c(=O)c(C(=O)O)cn(CC)c3c2F)C1", "note": "(centres unmarked) [merafloxacin, 1-ethyl-7-[3-(ethylaminomethyl)pyrrolidin-1-yl]-6,8-difluoro-4-oxoquinoline-3-carboxylic acid]", "values": [
      {"measurement": "frameshifting inhibition in structure-perturbing FSE mutants", "result": "significantly inhibited frameshifting in all variants"},
      {"measurement": "−1 PRF inhibition in naturally occurring FSE variants", "result": "inhibited −1 PRF in all variants with similar efficacy"}
    ]}
  ]
}
